Assay results taken from ChEMBL document CHEMBL1201862, “PubChem BioAssay data set” (2004).
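Test compounds were applied to cells in 96-well plates for 48 hours at 5 doses. GI50: concentration for 50% inhibition of growth.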 Calls of active or inactive are those of the source. Rule as the data show it: active = GI50 up to about 1.1 µM and inactive = higher.

Key:
Experiment in all cases: NCI-60 cell line screen, 48 h
[1] = test system: 786-0
[2] = test system: A549
[3] = test system: ACHN
[4] = test system: CAKI-1
[5] = test system: CCRF-CEM
[6] = test system: COLO 205
[7] = test system: DLD-1
[8] = test system: DMS-114
[9] = test system: DMS-273
[10] = test system: EKVX
[11] = test system: HCC 2998
[12] = test system: HCT-116
[13] = test system: HCT-15
[14] = test system: HL-60
[15] = test system: HOP-18
[16] = test system: HOP-62
[17] = test system: HOP-92
[18] = test system: HT-29
[19] = test system: IGROV-1
[20] = test system: K562
[21] = test system: KM-20L2
[22] = test system: KM12
[23] = test system: LXFL 529
[24] = test system: M14
[25] = test system: M19-MEL
[26] = test system: MOLT-4
[27] = test system: Malme-3M
[28] = test system: NCI-H226
[29] = test system: NCI-H23
[30] = test system: NCI-H460
[31] = test system: NCI-H522
[32] = test system: OVCAR-3
[33] = test system: OVCAR-4
[34] = test system: OVCAR-8
[35] = test system: RPMI-8226
[36] = test system: RXF 631
[37] = test system: SF-268
[38] = test system: SF-295
[39] = test system: SF-539
[40] = test system: SK-MEL-28
[41] = test system: SK-MEL-2
[42] = test system: SN12C
[43] = test system: SNB-19
[44] = test system: SNB-75
[45] = test system: SR
[46] = test system: SW-620
[47] = test system: U-251
[48] = test system: UACC-257
[49] = test system: UACC-62
[50] = test system: UO-31
[51] = test system: XF498
[52] = test system: A498
[53] = test system: OVCAR-5
[54] = test system: SK-MEL-5
[55] = test system: SK-OV-3
[56] = test system: SNB-78
[57] = test system: TK-10
[58] = test system: LOX IMVI
[59] = test system: RXF 393

CC(=O)NC(CCCCNC(=O)N(CCCl)N=O)C(=O)NCc1ccccc1 (stereo not given)
GI50 [1]: 35.9 µM (inactive)
GI50 [2]: > 100 µM (inactive)
GI50 [3]: > 100 µM (inactive)
GI50 [4]: > 100 µM (inactive)
GI50 [5]: > 100 µM (inactive)
GI50 [6]: > 100 µM (inactive)
GI50 [7]: > 100 µM (inactive)
GI50 [8]: > 100 µM (inactive)
GI50 [9]: > 100 µM (inactive)
GI50 [10]: > 100 µM (inactive)
GI50 [11]: > 100 µM (inactive)
GI50 [12]: > 100 µM (inactive)
GI50 [13]: > 100 µM
GI50 [14]: > 100 µM (inactive)
GI50 [15]: > 100 µM (inactive)
GI50 [16]: > 100 µM (inactive)
GI50 [17]: > 100 µM (inactive)
GI50 [18]: > 100 µM (inactive)
GI50 [19]: 51.8 µM (inactive)
GI50 [20]: > 100 µM (inactive)
GI50 [21]: > 100 µM (inactive)
GI50 [22]: > 100 µM (inactive)
GI50 [23]: > 100 µM (inactive)
GI50 [24]: > 100 µM (inactive)
GI50 [25]: > 100 µM (inactive)
GI50 [26]: > 100 µM (inactive)
GI50 [27]: > 100 µM (inactive)
GI50 [28]: > 100 µM (inactive)
GI50 [29]: > 100 µM (inactive)
GI50 [30]: 28.6 µM (inactive)
GI50 [31]: > 100 µM (inactive)
GI50 [32]: > 100 µM (inactive)
GI50 [33]: > 100 µM (inactive)
GI50 [34]: > 100 µM (inactive)
GI50 [35]: > 100 µM (inactive)
GI50 [36]: > 100 µM (inactive)
GI50 [37]: 17.9 µM (inactive)
GI50 [38]: 55.2 µM (inactive)
GI50 [39]: 29 µM (inactive)
GI50 [40]: > 100 µM (inactive)
GI50 [41]: > 100 µM (inactive)
GI50 [42]: > 100 µM (inactive)
GI50 [43]: > 100 µM (inactive)
GI50 [44]: 27.2 µM (inactive)
GI50 [45]: 91.6 µM (inactive)
GI50 [46]: > 100 µM (inactive)
GI50 [47]: 61.7 µM (inactive)
GI50 [48]: > 100 µM (inactive)
GI50 [49]: > 100 µM (inactive)
GI50 [50]: > 100 µM (inactive)
GI50 [51]: > 100 µM (inactive)

Cc1cc(Cl)ccc1N1C(=O)C(=O)C(c2nc3ccccc3s2)C(=O)C1=O
GI50 [1]: > 100 µM (inactive)
GI50 [52]: > 100 µM (inactive)
GI50 [2]: > 100 µM (inactive)
GI50 [3]: > 100 µM (inactive)
GI50 [4]: > 100 µM (inactive)
GI50 [5]: > 100 µM (inactive)
GI50 [6]: > 100 µM (inactive)
GI50 [7]: > 100 µM (inactive)
GI50 [8]: > 100 µM (inactive)
GI50 [9]: > 100 µM (inactive)
GI50 [10]: > 100 µM (inactive)
GI50 [12]: > 100 µM (inactive)
GI50 [13]: > 100 µM
GI50 [14]: > 100 µM (inactive)
GI50 [15]: > 100 µM (inactive)
GI50 [16]: > 100 µM (inactive)
GI50 [17]: > 100 µM (inactive)
GI50 [18]: > 100 µM (inactive)
GI50 [19]: > 100 µM (inactive)
GI50 [20]: > 100 µM (inactive)
GI50 [21]: > 100 µM (inactive)
GI50 [22]: > 100 µM (inactive)
GI50 [23]: > 100 µM (inactive)
GI50 [24]: > 100 µM (inactive)
GI50 [26]: > 100 µM (inactive)
GI50 [27]: > 100 µM (inactive)
GI50 [28]: > 100 µM (inactive)
GI50 [29]: > 100 µM (inactive)
GI50 [30]: > 100 µM (inactive)
GI50 [31]: > 100 µM (inactive)
GI50 [32]: > 100 µM (inactive)
GI50 [33]: > 100 µM (inactive)
GI50 [53]: > 100 µM (inactive)
GI50 [34]: > 100 µM (inactive)
GI50 [35]: > 100 µM (inactive)
GI50 [36]: > 100 µM (inactive)
GI50 [37]: > 100 µM (inactive)
GI50 [38]: > 100 µM (inactive)
GI50 [39]: > 100 µM (inactive)
GI50 [40]: > 100 µM (inactive)
GI50 [41]: > 100 µM (inactive)
GI50 [54]: > 100 µM (inactive)
GI50 [55]: > 100 µM (inactive)
GI50 [42]: > 100 µM (inactive)
GI50 [43]: > 100 µM (inactive)
GI50 [44]: > 100 µM (inactive)
GI50 [56]: > 100 µM (inactive)
GI50 [45]: > 100 µM (inactive)
GI50 [46]: > 100 µM (inactive)
GI50 [57]: > 100 µM (inactive)
GI50 [47]: > 100 µM (inactive)
GI50 [48]: > 100 µM (inactive)
GI50 [49]: > 100 µM (inactive)
GI50 [50]: > 100 µM (inactive)
GI50 [51]: > 100 µM (inactive)

CCc1ccccc1NC(=O)C(=O)C1C(=O)N(c2ccccc2)N=C1N (stereo not given)
GI50 [1]: > 100 µM (inactive)
GI50 [52]: > 100 µM (inactive)
GI50 [2]: > 100 µM (inactive)
GI50 [3]: > 100 µM (inactive)
GI50 [4]: > 100 µM (inactive)
GI50 [7]: > 100 µM (inactive)
GI50 [8]: > 100 µM (inactive)
GI50 [9]: > 100 µM (inactive)
GI50 [10]: > 100 µM (inactive)
GI50 [11]: > 100 µM (inactive)
GI50 [12]: > 100 µM (inactive)
GI50 [13]: > 100 µM
GI50 [14]: 72.4 µM (inactive)
GI50 [15]: > 100 µM (inactive)
GI50 [16]: > 100 µM (inactive)
GI50 [17]: > 100 µM (inactive)
GI50 [18]: > 100 µM (inactive)
GI50 [19]: > 100 µM (inactive)
GI50 [20]: > 100 µM (inactive)
GI50 [21]: > 100 µM (inactive)
GI50 [22]: > 100 µM (inactive)
GI50 [58]: > 100 µM (inactive)
GI50 [23]: > 100 µM (inactive)
GI50 [24]: > 100 µM (inactive)
GI50 [25]: > 100 µM (inactive)
GI50 [26]: 8.3 µM (inactive)
GI50 [27]: > 100 µM (inactive)
GI50 [28]: > 100 µM (inactive)
GI50 [29]: > 100 µM (inactive)
GI50 [30]: > 100 µM (inactive)
GI50 [32]: > 100 µM (inactive)
GI50 [33]: > 100 µM (inactive)
GI50 [53]: > 100 µM (inactive)
GI50 [34]: > 100 µM (inactive)
GI50 [35]: > 100 µM (inactive)
GI50 [59]: > 100 µM (inactive)
GI50 [36]: > 100 µM (inactive)
GI50 [37]: > 100 µM (inactive)
GI50 [38]: > 100 µM (inactive)
GI50 [39]: > 100 µM (inactive)
GI50 [40]: > 100 µM (inactive)
GI50 [41]: > 100 µM (inactive)
GI50 [54]: > 100 µM (inactive)
GI50 [42]: > 100 µM (inactive)
GI50 [43]: > 100 µM (inactive)
GI50 [44]: > 100 µM (inactive)
GI50 [56]: > 100 µM (inactive)
GI50 [46]: > 100 µM (inactive)
GI50 [57]: > 100 µM (inactive)
GI50 [47]: > 100 µM (inactive)
GI50 [48]: > 100 µM (inactive)
GI50 [49]: > 100 µM (inactive)
GI50 [50]: > 100 µM (inactive)
GI50 [51]: > 100 µM (inactive)
